Among the data in BindingDB's records for PubMed 28813519 (Erasmus University Medical Center) are IC50 values, retold here.

Assay [1] is described as follows: Inhibition of BRD4 in mouse MPNST cells assessed as reduction in cell viability incubated for 72 hrs by SRB assay. A general note: In SRB staining, fixed cells bind dye roughly in proportion to their protein.
A short description of assay [2]: Inhibition of BRD4 in mouse primary skin-derived precursors (Nf1-/-, P53-/-) assessed as reduction in cell viability incubated for 72 hrs by SRB assay.

With `Cc1sc2c(c1C)C(c1ccc(Cl)cc1)=N[C@@H](CC(=O)OC(C)(C)C)c1nnc(C)n1-2`, the IC50 in assay [1] and in assay [2] was under 400 nM in each case.
